According to ChEMBL document CHEMBL5303304, “EUbOPEN Chemogenomics Library - IncuCyte” (2023):

Columns and labels:
Format in all cases: toxicity, cell-based
HEK-293T = test: Incucyte cell viability with HEK293T; details: human, 10 µM, compound concentration 10 uM
Fibroblast = test: Incucyte cell viability with human fibroblast; details: 10 µM, compound concentration 10 uM
U2OS = test: Incucyte cell viability with U2OS; details: human, 10 µM, compound concentration 10 uM
Further: unitless GR value; below 1 slowed growth and below 0 cell loss.

Row | SMILES | Growth Rate (HEK-293T; 0 h, replicate number 1) | Growth Rate (HEK-293T; 0 h, replicate number 2) | Growth Rate (Fibroblast; 18 h, replicate number 1) | Growth Rate (U2OS; 0 h, replicate number 2) | Growth Rate (U2OS; 6 h, replicate number 2) | Growth Rate (U2OS; 12 h, replicate number 1) | Growth Rate (U2OS; 12 h, replicate number 2) | Growth Rate (U2OS; 18 h, replicate number 2) | Growth Rate (U2OS; 24 h, replicate number 2) | Growth Rate (HEK-293T; 6 h, replicate number 2) | Growth Rate (HEK-293T; 12 h, replicate number 2) | Growth Rate (HEK-293T; 18 h, replicate number 1) | Growth Rate (HEK-293T; 18 h, replicate number 2) | Growth Rate (HEK-293T; 24 h, replicate number 1) | Growth Rate (HEK-293T; 24 h, replicate number 2) | Growth Rate (Fibroblast; 0 h, replicate number 1) | Growth Rate (U2OS; 18 h, replicate number 1) | Growth Rate (U2OS; 24 h, replicate number 1) | Growth Rate (Fibroblast; 12 h, replicate number 2) | Growth Rate (Fibroblast; 18 h, replicate number 2) | further results
1 | COC(=O)C1=C(C)NC(C)=C(C(=O)OC(C)C)C1c1cccc2nonc12 (stereo not drawn) [ISRADIPINE] | 0.8 | 0.32 | -0.41 | 0.25 | 0.83 | 1 | 0.87 | 0.89 | 0.9 | – | – | – | – | – | – | – | – | – | – | – | Growth Rate (Fibroblast; 6 h, replicate number 1): -0.03; Growth Rate (Fibroblast; 12 h, replicate number 1): -1; Growth Rate (Fibroblast; 24 h, replicate number 1): 0.29; Growth Rate (U2OS; 0 h, replicate number 1): 0.46
2 | Cn1c(C2(NC(=O)c3ccc4c(C5CCCC5)c(-c5ncc(Br)cn5)n(C)c4c3)CCC2)nc2ccc(/C=C/C(=O)O)cc21 [DELEOBUVIR] | – | – | 0.98 | – | 0.75 | 0.44 | 0.92 | – | 0.88 | 0.72 | 0.88 | 0.92 | 0.88 | 0.91 | 0.85 | -1 | 0.49 | 0.7 | – | – | Growth Rate (Fibroblast; 24 h, replicate number 1): 0.85; Growth Rate (U2OS; 6 h, replicate number 1): 0.31
3 | O=C(N[C@H](Cc1ccccc1)C(=O)O)c1cccc(OCc2cccnc2)c1.O=CO | – | – | 0.93 | 0.39 | 0.67 | 0.66 | 0.77 | 0.98 | 0.86 | – | – | 1 | – | – | – | – | – | 0.8 | 0.7 | 0.81 | Growth Rate (HEK-293T; 6 h, replicate number 1): 0.73; Growth Rate (Fibroblast; 6 h, replicate number 1): 0.68; Growth Rate (Fibroblast; 12 h, replicate number 1): 0.47; Growth Rate (Fibroblast; 24 h, replicate number 1): 0.88; Growth Rate (U2OS; 0 h, replicate number 1): 0.75; Growth Rate (U2OS; 6 h, replicate number 1): 0.69
4 | Oc1cc2c(cc1O)CN(C(=S)NCCc1ccc(Cl)cc1)CCC2 [CAPSAZEPINE] | – | – | -0.47 | -0.38 | 0.57 | 0.86 | 0.84 | 0.75 | 0.93 | -0.37 | 0.11 | 0.54 | 0.51 | – | 0.55 | – | 0.88 | 0.77 | -0.04 | 0.44 | Growth Rate (HEK-293T; 6 h, replicate number 1): -0.22; Growth Rate (HEK-293T; 12 h, replicate number 1): 0.04; Growth Rate (Fibroblast; 0 h, replicate number 2): -0.78; Growth Rate (Fibroblast; 6 h, replicate number 2): -0.98; Growth Rate (Fibroblast; 24 h, replicate number 2): 0.57
5 | Nc1ncnc2[nH]c(-c3ccccc3)nc12 | – | – | – | 0.55 | 0.92 | – | 0.9 | 0.95 | – | 0.23 | 0.55 | 0.8 | 0.68 | 0.85 | 0.78 | – | – | – | 0.9 | – | Growth Rate (HEK-293T; 6 h, replicate number 1): 0.83; Growth Rate (HEK-293T; 12 h, replicate number 1): 0.87; Growth Rate (Fibroblast; 0 h, replicate number 2): 0.44; Growth Rate (Fibroblast; 6 h, replicate number 2): 0.95; Growth Rate (Fibroblast; 12 h, replicate number 1): 0.88; Growth Rate (U2OS; 0 h, replicate number 1): -1
6 | NC1(c2ccc(-c3nc4c(O)ccnn4c3-c3ccccc3)cc2)CCC1 | -0.07 | -0.33 | 0.95 | -0.99 | – | 0.63 | 0.83 | – | 0.93 | – | – | – | – | 0.95 | – | -1 | 0.66 | 0.89 | 0.9 | 0.83 | Growth Rate (Fibroblast; 0 h, replicate number 2): -0.33; Growth Rate (Fibroblast; 6 h, replicate number 2): 0.35; Growth Rate (Fibroblast; 24 h, replicate number 2): 0.93; Growth Rate (U2OS; 6 h, replicate number 1): 0.34
7 | COc1cc2c(NC3CCN(C(C)C)CC3)nc(C3CCCCC3)nc2cc1OCCCN1CCCC1 | – | -1 | -0.27 | 0.19 | 0.03 | 0.2 | -0.13 | -0.16 | -0.23 | -0.51 | -0.45 | -0.39 | -0.38 | -0.26 | -0.39 | – | 0.05 | -0.01 | -0.48 | -0.46 | Growth Rate (HEK-293T; 6 h, replicate number 1): -0.49; Growth Rate (HEK-293T; 12 h, replicate number 1): -0.43; Growth Rate (Fibroblast; 6 h, replicate number 1): -0.16; Growth Rate (Fibroblast; 6 h, replicate number 2): -0.65; Growth Rate (Fibroblast; 12 h, replicate number 1): -0.07; Growth Rate (Fibroblast; 24 h, replicate number 1): -0.35; Growth Rate (Fibroblast; 24 h, replicate number 2): -0.46; Growth Rate (U2OS; 0 h, replicate number 1): -0.98; Growth Rate (U2OS; 6 h, replicate number 1): 0.4
8 | COc1ccccc1-n1nc(C2CC(C)(C)OC(C)(C)C2)cc1-c1ccc(Cl)cc1 | – | – | -0.27 | -0.66 | 0.41 | 0.85 | 0.93 | 0.96 | 0.95 | -0.13 | 0.41 | 0.79 | 0.54 | 0.95 | 0.64 | -0.49 | 0.94 | 0.94 | 0.99 | 0.87 | Growth Rate (HEK-293T; 6 h, replicate number 1): -0.05; Growth Rate (HEK-293T; 12 h, replicate number 1): 0.46; Growth Rate (Fibroblast; 6 h, replicate number 2): -1
9 | Cn1cnc(Cn2ccc3ccc(CNCc4[nH]c5ccccc5c4[C@H]4NC(=O)c5ccc(O)cc54)cc32)c1 | -0.01 | – | 0.68 | 0.28 | 0.3 | 0.98 | 0.81 | 0.67 | 0.9 | – | – | – | – | – | – | -0.98 | – | 0.91 | – | 0.8 | Growth Rate (Fibroblast; 0 h, replicate number 2): -0.84; Growth Rate (Fibroblast; 6 h, replicate number 1): 0.19; Growth Rate (Fibroblast; 6 h, replicate number 2): 0.48; Growth Rate (U2OS; 6 h, replicate number 1): 0.88
10 | CCCCC[C@H](O)/C=C/[C@H]1[C@H](O)CC(=O)[C@@H]1CCCCCCC(=O)O [ALPROSTADIL] | -0.3 | 0.55 | – | 0.57 | – | 0.94 | 0.76 | 0.76 | 0.92 | – | 0.97 | – | 0.98 | – | – | -1 | – | 0.93 | 0.37 | 0.79 | Growth Rate (HEK-293T; 6 h, replicate number 1): 0.47; Growth Rate (HEK-293T; 12 h, replicate number 1): 0.82; Growth Rate (Fibroblast; 24 h, replicate number 2): 0.9; Growth Rate (U2OS; 6 h, replicate number 1): 0.87
11 | O=C(O)CCn1c2c(c3ccccc31)C[C@H](NS(=O)(=O)c1ccc(F)cc1)CC2 [RAMATROBAN] | 0.1 | 0.04 | – | – | – | – | – | – | – | – | – | – | – | – | – | – | – | – | 0.99 | 0.89 | Growth Rate (Fibroblast; 24 h, replicate number 2): 0.74; Growth Rate (U2OS; 0 h, replicate number 1): 0.53; Growth Rate (U2OS; 6 h, replicate number 1): 0.88
12 | CNC(=O)c1ccc2c(c1)NC(=O)/C2=C(\Nc1ccc(CN2CCCCC2)cc1)c1ccccc1.Cl.O | – | – | – | – | – | 0.94 | – | – | – | 0.72 | – | – | 0.71 | 1 | 0.54 | -1 | 0.82 | 0.89 | – | – | Growth Rate (Fibroblast; 24 h, replicate number 2): 0.78; Growth Rate (U2OS; 0 h, replicate number 1): -1
13 | CCOP(=O)(OCC)C(=Cc1cc(C(C)(C)C)c(O)c(C(C)(C)C)c1)P(=O)(OCC)OCC | 0.16 | -0.99 | 0.39 | 0.17 | 0.36 | – | 0.63 | 0.75 | 0.77 | 0.25 | 0.55 | 0.94 | 0.79 | – | 0.95 | – | – | – | – | 0.7 | Growth Rate (Fibroblast; 0 h, replicate number 2): 0.24; Growth Rate (Fibroblast; 6 h, replicate number 1): 0.57; Growth Rate (Fibroblast; 6 h, replicate number 2): 0.08; Growth Rate (Fibroblast; 12 h, replicate number 1): 0.78; Growth Rate (Fibroblast; 24 h, replicate number 1): 0.61
14 | CN1CCN(c2ccnc(NCCc3ccccc3)n2)CC1 [TP-040n] | – | – | 0.74 | – | -0.72 | 1 | – | 0.96 | 0.87 | 0.09 | 0.3 | 0.42 | 0.35 | 0.41 | 0.4 | -1 | 0.94 | – | 0.9 | 0.63 | Growth Rate (HEK-293T; 6 h, replicate number 1): 0.2; Growth Rate (HEK-293T; 12 h, replicate number 1): 0.39; Growth Rate (Fibroblast; 12 h, replicate number 1): 0.8; Growth Rate (Fibroblast; 24 h, replicate number 1): 0.58; Growth Rate (Fibroblast; 24 h, replicate number 2): 0.53
15 | COc1nc2ccc([C@@](O)(c3ccccc3)C3CCN(C(C)=O)CC3)cc2c(Cl)c1Cc1ccc(-n2cccn2)cc1 [JNJ-54119936] | -0.96 | -1 | – | 0.93 | 0.45 | 0.93 | 0.72 | 0.7 | 0.64 | – | – | 0.37 | – | 0.25 | – | -1 | 0.84 | 0.94 | – | 0.98 | Growth Rate (HEK-293T; 12 h, replicate number 1): 0.65; Growth Rate (U2OS; 0 h, replicate number 1): -1
